{"source": "patent US20260274833A1", "about": "(NiKang Therapeutics, Inc., priority 2022, published 2026)", "molecular_target": "T1, CDK2 (Homo sapiens, UniProt P24941)", "T1 construct": "endogenous in cells; host or cells: OVCAR3 cells", "experiment": "Phospho-RB measurement in OVCAR3 cells (HTRF phospho-RB cellular kit)", "assay_type": "cell-based", "conditions": "inhibition of RB phosphorylation at S807/811 (HTRF, TR-FRET ratio 665/620), 24 h compound treatment, 0.3 to 10,000 nM", "experimental": "Biological Example 1: Phospho-RB Measurement in OVCAR3 Cells\nThe ability of compounds of Formula (I) to inhibit CDK2 was determined in OVCAR3 cells by measuring inhibition of phosphorylation of RB protein at S780 and S807/811. Phosphorylation of RB protein at S807/811 were measured using HTRF phospho-RB cellular kits (Cat #64RBS807PEG) from Cisbio.\nOn Day 1, OVCAR3 cells were seeded into 96-well tissue-culture treated plates at 20,000 cells/well in 200 μL and incubated overnight at 37° C. in CO2 atmosphere. On Day 2, the cells were treated with test compounds at concentrations from 0.3 to 10,000 nM using HP D300 digital dispenser. Twenty-four hours after compound treatment, cell culture media was removed by flicking the plate and tapping the plate against clean paper towel. Immediately 30 μL 1× lysis buffer was supplemented from the kit and the plate was incubated at room temperature on shaker for 30 min. After homogenization by pipetting up and down, 8 μL cell lysate from 96-well cell culture plate was transferred to 384-well small volume white detection plate. 2 μL premixed detection solution was added and the plate was covered with sealer. To prepare the detection solution, d2 conjugated-phospho-RB antibody and Eu-cryptate conjugated phosphor-RB antibody were diluted into detection buffer following manufacturer's instruction.\nDetection plates were incubated for 4 h at room temperature and read on ClarioStar (BMG Labtech) in TR-FRET mode ([…]). The TR-FRET ratio (665 nM/620 nM) was plotted against the compound concentration and normalized to DMSO controls. Half maximal inhibition concentration (IC50) values are calculated with a four-parameter logistic fit using GraphPad Prism (version 8; La Jolla, CA)."}
{"compound": "O=S1(=O)CC2(CC(Nc3nccc(-c4sc(N5C6CCC5CN(CC(F)(F)F)C6)nc4-c4cccc(NS(=O)(=O)N5Cc6cccc(C(F)(F)F)c6C5)c4F)n3)C2)C1", "note": "[Example 40, N-(3-(5-(2-((2,2-dioxido-2-thiaspiro-[3.3]-heptan-6-yl)amino)pyrimidin-4-yl)-2-(3-(2,2,2-trifluoroethyl)-3,8-diazabicyclo[3.2.1]-octan-8-yl)thiazol-4-yl)-2-fluorophenyl)-4-(trifluoromethyl)-isoindoline-2-sulfonamide]", "values": [{"measurement": "IC50", "result": 0.192, "unit": "µM"}]}
{"compound": "O=S1(=O)CC2(CC(Nc3nccc(-c4sc(C56CC(C5)C6)nc4-c4cccc(NS(=O)(=O)N5CCc6c5cccc6C(F)(F)F)c4F)n3)C2)C1", "note": "[Example 42, N-(3-(2-(bicyclo [1.1.1]pentan-1-yl)-5-(2-((2,2-dioxido-2-thiaspiro[3.3]heptan-6-yl)amino)-pyrimidin-4-yl)thiazol-4-yl)-2-fluorophenyl)-4-(trifluoromethyl)-indoline-1-sulfonamide]", "values": [{"measurement": "IC50", "result": 0.278, "unit": "µM"}]}
{"compound": "CN1CC2CCC(C1)N2c1nc(-c2cccc(NS(=O)(=O)N3CCc4ccc(Cl)cc43)c2F)c(-c2ccnc(NC3CC4(C3)CS(=O)(=O)C4)n2)s1", "note": "[Example 43, 6-chloro-N-(3-(5-(2-((2,2-dioxido-2-thiaspiro[3.3]heptan-6-yl)amino)-pyrimidin-4-yl)-2-(3-methyl-3,8-diazabicyclo [3.2.1]octan-8-yl)thiazol-4-yl)-2-fluorophenyl) indoline-1-sulfonamide]", "values": [{"measurement": "IC50", "result": 0.0271, "unit": "µM"}]}
{"compound": "CN1CC2CCC(C1)N2c1nc(-c2cccc(NS(=O)(=O)N3CCc4ccc(C(F)(F)F)cc43)c2F)c(-c2ccnc(NC3CC4(C3)CS(=O)(=O)C4)n2)s1", "note": "[Example 44, N-(3-(5-(2-((2,2-dioxido-2-thiaspiro-[3.3]heptan-6-yl)amino)pyrimidin-4-yl)-2-(3-methyl-3,8-diazabicyclo[3.2.1]-octan-8-yl)thiazol-4-yl)-2-fluorophenyl)-6-(trifluoromethyl) indoline-1-sulfonamide]", "values": [{"measurement": "IC50", "result": 0.056, "unit": "µM"}]}
{"compound": "O=S1(=O)CC2(CC(Nc3nccc(-c4sc(C56CC(C5)C6)nc4-c4cccc(NS(=O)(=O)N5CCc6c5ccc(F)c6F)c4F)n3)C2)C1", "note": "[Example 45, N-(3-(2-(bicyclo [1.1.1]pentan-1-yl)-5-(2-((2,2-dioxido-2-thiaspiro[3.3]heptan-6-yl)amino)-pyrimidin-4-yl)thiazol-4-yl)-2-fluorophenyl)-4,5-difluoroindoline-1-sulfonamide]", "values": [{"measurement": "IC50", "result": 0.314, "unit": "µM"}]}
{"compound": "O=S1(=O)CC2(CC(Nc3nccc(-c4sc(C56CC(C5)C6)nc4-c4cccc(NS(=O)(=O)N5CCc6ccccc6C5)c4F)n3)C2)C1", "note": "[Example 46, N-(3-(2-(bicyclo [1.1.1]pentan-1-yl)-5-(2-((2,2-dioxido-2-thiaspiro[3.3]heptan-6-yl)amino)-pyrimidin-4-yl)thiazol-4-yl)-2-fluorophenyl)-3,4-dihydroisoquinoline-2(1H)-sulfonamide]", "values": [{"measurement": "IC50", "result": 0.476, "unit": "µM"}]}
{"compound": "O=S1(=O)CC2(CC(Nc3nccc(-c4sc(C56CC(C5)C6)nc4-c4cccc(NS(=O)(=O)N5CCc6cc(Cl)ccc65)c4F)n3)C2)C1", "note": "[Example 47, N-(3-(2-(bicyclo [1.1.1]pentan-1-yl)-5-(2-((2,2-dioxido-2-thiaspiro[3.3]heptan-6-yl)amino)-pyrimidin-4-yl)thiazol-4-yl)-2-fluorophenyl)-5-chloroindoline-1-sulfonamide]", "values": [{"measurement": "IC50", "result": 0.343, "unit": "µM"}]}
{"compound": "O=S1(=O)CC2(CC(Nc3nccc(-c4sc(C56CC(C5)C6)nc4-c4cccc(NS(=O)(=O)N5CCc6ccc(OC(F)F)cc65)c4F)n3)C2)C1", "note": "[Example 48, N-(3-(2-(bicyclo [1.1.1]pentan-1-yl)-5-(2-((2,2-dioxido-2-thiaspiro[3.3]heptan-6-yl)amino)-pyrimidin-4-yl)thiazol-4-yl)-2-fluorophenyl)-6-(difluoromethoxy)-indoline-1-sulfonamide]", "values": [{"measurement": "IC50", "result": 0.139, "unit": "µM"}]}
{"compound": "O=S1(=O)CC2(CC(Nc3nccc(-c4sc(N5C6CCC5CN(CC(F)(F)F)C6)nc4-c4cccc(NS(=O)(=O)N5Cc6cccc(C(F)F)c6C5)c4F)n3)C2)C1", "note": "[Example 49]", "values": [{"measurement": "IC50", "result": 0.137, "unit": "µM"}]}
{"compound": "O=S1(=O)CC2(CC(Nc3nccc(-c4sc(C56CC(C5)C6)nc4-c4cccc(NS(=O)(=O)N5CCCc6ccccc6C5)c4F)n3)C2)C1", "note": "[Example 50, N-(3-(2-(bicyclo [1.1.1]pentan-1-yl)-5-(2-((2,2-dioxido-2-thiaspiro[3.3]heptan-6-yl)amino)-pyrimidin-4-yl)thiazol-4-yl)-2-fluorophenyl)-1,3,4,5-tetrahydro-2H-benzo[c]azepine-2-sulfonamide]", "values": [{"measurement": "IC50", "result": 0.228, "unit": "µM"}]}
{"compound": "O=S1(=O)CC2(CC(Nc3nccc(-c4sc(N5C6CCC5CN(C5CC(F)(F)C5)C6)nc4-c4cccc(NS(=O)(=O)N5CCc6ccc(Cl)cc65)c4F)n3)C2)C1", "note": "[Example 51, 6-chloro-N-(3-(2-(3-(3,3-difluoro-cyclobutyl)-3,8-diazabicyclo [3.2.1]octan-8-yl)-5-(2-((2,2-dioxido-2-thiaspiro-[3.3]heptan-6-yl)amino)-pyrimidin-4-yl)thiazol-4-yl)-2-fluorophenyl)-indoline-1-sulfonamide]", "values": [{"measurement": "IC50", "result": 0.336, "unit": "µM"}]}
{"compound": "O=S1(=O)CC2(CC(Nc3nccc(-c4sc(N5C6CCC5CN(C5CC(F)(F)C5)C6)nc4-c4cccc(NS(=O)(=O)N5Cc6cccc(C(F)F)c6C5)c4F)n3)C2)C1", "note": "[Example 52, N-(3-(2-(3-(3,3-difluorocyclobutyl)-3,8-diazabicyclo [3.2.1]octan-8-yl)-5-(2-((2,2-dioxido-2-thiaspiro[3.3]heptan-6-yl)amino)-pyrimidin-4-yl)thiazol-4-yl)-2-fluorophenyl)-4-(difluoromethyl)-isoindoline-2-sulfonamide]", "values": [{"measurement": "IC50", "result": 0.16, "unit": "µM"}]}
{"compound": "CS(=O)(=O)[C@H]1CC[C@H](Nc2nccc(-c3sc(C45CC(C(F)(F)F)(C4)C5)nc3-c3cccc(NS(=O)(=O)N4CCc5ccccc54)c3F)n2)CC1", "note": "[Example 53]", "values": [{"measurement": "IC50", "result": 0.262, "unit": "µM"}]}
{"compound": "CS(=O)(=O)[C@H]1CC[C@H](Nc2nccc(-c3sc(C45CC(C(F)(F)F)(C4)C5)nc3-c3cccc(NS(=O)(=O)N4CCc5ccc(Cl)cc54)c3F)n2)CC1", "note": "[Example 54, 6-chloro-N-(2-fluoro-3-(5-(2-(((1r,4r)-4-(methylsulfonyl)cyclohexyl)amino)pyrimidin-4-yl)-2-(3-(trifluoromethyl)bicyclo-[1.1.1]-pentan-1-yl)thiazol-4-yl)phenyl)-indoline-1-sulfonamide]", "values": [{"measurement": "IC50", "result": 0.382, "unit": "µM"}]}
{"compound": "CS(=O)(=O)[C@H]1CC[C@H](Nc2nccc(-c3sc(C45CC(C(F)(F)F)(C4)C5)nc3-c3cccc(NS(=O)(=O)N4CCc5ccc(C(F)(F)F)cc54)c3F)n2)CC1", "note": "[Example 55, N-(2-fluoro-3-(5-(2-(((1r, 4r)-4-(methylsulfonyl)cyclohexyl)amino)pyrimidin-4-yl)-2-(3-(trifluoromethyl)bicyclo-[1.1.1]-pentan-1-yl)thiazol-4-yl)phenyl)-6-(trifluoromethyl) indoline-1-sulfonamide]", "values": [{"measurement": "IC50", "result": 0.525, "unit": "µM"}]}
{"compound": "CS(=O)(=O)[C@H]1CC[C@H](Nc2nccc(-c3sc(C45CC(C(F)(F)F)(C4)C5)nc3-c3cccc(NS(=O)(=O)N4CCc5ccc(C#N)cc54)c3F)n2)CC1", "note": "[Example 56, 6-cyano-N-(2-fluoro-3-(5-(2-(((1r,4r)-4-(methylsulfonyl)cyclohexyl)amino)-pyrimidin-4-yl)-2-(3-(trifluoromethyl)-bicyclo[1.1.1]-pentan-1-yl)thiazol-4-yl)phenyl)indoline-1-sulfonamide]", "values": [{"measurement": "IC50", "result": 0.27, "unit": "µM"}]}
{"compound": "CS(=O)(=O)[C@H]1CC[C@H](Nc2nccc(-c3sc(C45CC(C(F)(F)F)(C4)C5)nc3-c3cccc(NS(=O)(=O)N4Cc5ccccc5C4)c3F)n2)CC1", "note": "[Example 57, N-(2-fluoro-3-(5-(2-(((1r,4r)-4-(methylsulfonyl)cyclohexyl)amino)-pyrimidin-4-yl)-2-(3-(trifluoromethyl)-bicyclo[1.1.1]-pentan-1-yl)thiazol-4-yl)phenyl) isoindoline-2-sulfonamide]", "values": [{"measurement": "IC50", "result": 0.494, "unit": "µM"}]}
{"compound": "CS(=O)(=O)C1CCC(Nc2nccc(-c3sc(C45CC(C(F)(F)F)(C4)C5)nc3-c3cccc(NS(=O)(=O)N4Cc5cccc(C(F)F)c5C4)c3F)n2)CC1", "note": "(centres unmarked) [Example 58, 4-(difluoromethyl)-N-(2-fluoro-3-(5-(2-(((1r,4r)-4-(methylsulfonyl)cyclohexyl)-amino)pyrimidin-4-yl)-2-(3-(trifluoromethyl)-bicyclo[1.1.1]pentan-1-yl)thiazol-4-yl)phenyl)-isoindoline-2-sulfonamide]", "values": [{"measurement": "IC50", "result": 0.285, "unit": "µM"}]}
{"compound": "N#Cc1ccc2c(c1)N(S(=O)(=O)Nc1cccc(-c3nc(C45CC(C4)C5)sc3-c3ccnc(N[C@H]4C[C@@H]5CS(=O)(=O)C[C@@H]5C4)n3)c1F)CC2", "note": "[Example 59, N-(3-(2-(bicyclo [1.1.1]pentan-1-yl)-5-(2-(((3aR,5s,6aS)-2,2-dioxidohexahydro-1H-cyclopenta[c]thiophen-5-yl)amino)-pyrimidin-4-yl)thiazol-4-yl)-2-fluorophenyl)-6-cyanoindoline-1-sulfonamide]", "values": [{"measurement": "IC50", "result": 0.0533, "unit": "µM"}]}
{"compound": "CC1CCCN(S(=O)(=O)Nc2cccc(-c3nc(C(C)(C)C)sc3-c3ccnc(NC4CCN(S(C)(=O)=O)CC4)n3)c2F)C1", "note": "(centres unmarked) [Example 62, N-(3-(2-(tert-butyl)-5-(2-((1-(methylsulfonyl)-piperidin-4-yl)amino)-pyrimidin-4-yl)thiazol-4-yl)-2-fluoro-phenyl)-3-methylpiperidine-1-sulfonamide]", "values": [{"measurement": "IC50", "result": 3.17, "unit": "µM"}]}
